According to patent US11981658B2, “Substituted aminopyridine compounds as EGFR inhibitors” (YUHAN CORPORATION, priority 2021, dated 2024):
Like-named read-outs stand apart in the source and are kept apart here.

How the values were obtained:
[1] = target: EGFR Del19/T790M/C797S (Homo sapiens, UniProt P00533, C797S/DEL746-750/T790M); assay: Biochemical EGFR kinase inhibition assay (Lance Ultra TR-FRET), triple mutant del19/T790M/C797S
Summary of the method: (§1)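 In this biochemical assay, phosphorylation after a one-hour room-temperature reaction was detected with europium-labelled anti-phosphopeptide antibody at 2 nM final concentration.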

[2] = target: EGFR L858R/T790M/C797S (Homo sapiens, UniProt P00533, C797S/L858R/T790M); assay: Biochemical EGFR kinase inhibition assay (Lance Ultra TR-FRET), triple mutant L858R/T790M/C797S
Summary of the method: as §1

[3] = target: EGFR Del19/C797S (Homo sapiens, UniProt P00533, C797S/DEL746-750); assay: Biochemical EGFR kinase inhibition assay (Lance Ultra TR-FRET), double mutant del19/C797S
Summary of the method: as §1

[4] = target: EGFR L858R/C797S (Homo sapiens, UniProt P00533, C797S/L858R); assay: Biochemical EGFR kinase inhibition assay (Lance Ultra TR-FRET), double mutant L858R/C797S
Summary of the method: as §1

[5] = target: EGFR wildtype (WT) (Homo sapiens, UniProt P00533); assay: Biochemical EGFR kinase inhibition assay (Lance Ultra TR-FRET), wildtype
Summary of the method: as §1

[6] = IC50 Del19/T790M/C797S (nM), 100 μM ATP
[7] = Km ATP, read-out: IC50 Del19/T790M/C797S (nM), Km ATP
[8] = IC50 L858R/T790M/C797S (nM), 100 μM ATP
[9] = Km ATP, read-out: IC50 L858R/T790M/C797S (nM), Km ATP
[10] = IC50 Del19/C797S (nM), 100 μM ATP
[11] = Km ATP, read-out: IC50 Del19/C797S (nM), Km ATP
[12] = IC50 L858R/C797S (nM), 100 μM ATP
[13] = Km ATP, read-out: IC50 L858R/C797S (nM), Km ATP
[14] = Km ATP, read-out: IC50 WT (nM), Km ATP
[15] = Km ATP, read-out: IC50 Del19/T790M/C797S (nM) Km ATP
[16] = Km ATP, read-out: IC50 L858R/T790M/C797S (nM) Km ATP
[17] = Km ATP, read-out: IC50 Del19/C797S (nM) Km ATP
[18] = Km ATP, read-out: IC50 L858R/C797S (nM) Km ATP
[19] = Km ATP, read-out: IC50 WT (nM) Km ATP
[20] = ATP at Km, read-out: IC50 Del19/T790M/C797S (nM), Km ATP
[21] = ATP at Km, read-out: IC50 L858R/T790M/C797S (nM), Km ATP
[22] = ATP at Km, read-out: IC50 Del19/C797S (nM), Km ATP
[23] = ATP at Km, read-out: IC50 L858R/C797S (nM), Km ATP
[24] = ATP at Km, read-out: IC50 WT (nM), Km ATP

Chain of EGFR Del19/C797S (P00533 with tags, fused parts or gaps DEL746-750/C797S): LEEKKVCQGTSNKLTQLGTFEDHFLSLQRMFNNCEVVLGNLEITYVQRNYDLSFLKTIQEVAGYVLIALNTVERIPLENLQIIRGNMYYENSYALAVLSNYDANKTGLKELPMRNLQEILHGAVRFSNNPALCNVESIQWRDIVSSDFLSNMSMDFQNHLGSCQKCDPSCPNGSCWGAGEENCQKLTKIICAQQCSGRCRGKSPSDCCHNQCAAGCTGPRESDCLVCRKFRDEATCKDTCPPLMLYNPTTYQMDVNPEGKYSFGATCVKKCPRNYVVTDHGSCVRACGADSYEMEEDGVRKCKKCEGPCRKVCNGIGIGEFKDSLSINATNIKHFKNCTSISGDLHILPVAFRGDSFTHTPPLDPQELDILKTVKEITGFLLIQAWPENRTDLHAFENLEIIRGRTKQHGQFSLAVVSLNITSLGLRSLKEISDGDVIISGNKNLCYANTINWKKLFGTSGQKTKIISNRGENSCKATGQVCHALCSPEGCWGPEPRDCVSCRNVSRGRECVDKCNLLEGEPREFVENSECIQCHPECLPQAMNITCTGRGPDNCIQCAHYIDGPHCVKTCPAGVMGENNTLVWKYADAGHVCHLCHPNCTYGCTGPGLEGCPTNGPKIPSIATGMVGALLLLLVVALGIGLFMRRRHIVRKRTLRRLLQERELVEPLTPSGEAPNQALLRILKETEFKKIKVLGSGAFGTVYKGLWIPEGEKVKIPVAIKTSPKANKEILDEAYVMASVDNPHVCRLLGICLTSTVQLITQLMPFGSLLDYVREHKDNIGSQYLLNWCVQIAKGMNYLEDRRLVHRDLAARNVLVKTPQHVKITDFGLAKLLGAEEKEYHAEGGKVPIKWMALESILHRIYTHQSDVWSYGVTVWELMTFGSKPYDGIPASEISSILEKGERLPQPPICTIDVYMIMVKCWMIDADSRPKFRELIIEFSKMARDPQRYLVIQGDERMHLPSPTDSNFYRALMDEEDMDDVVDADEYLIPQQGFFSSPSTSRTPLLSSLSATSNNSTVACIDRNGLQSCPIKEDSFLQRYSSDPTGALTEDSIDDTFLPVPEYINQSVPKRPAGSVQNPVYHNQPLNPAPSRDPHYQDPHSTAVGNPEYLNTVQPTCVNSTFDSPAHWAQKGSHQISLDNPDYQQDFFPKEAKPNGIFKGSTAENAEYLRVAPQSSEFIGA
Chain of EGFR L858R/C797S (P00533 25-1210 C797S/L858R): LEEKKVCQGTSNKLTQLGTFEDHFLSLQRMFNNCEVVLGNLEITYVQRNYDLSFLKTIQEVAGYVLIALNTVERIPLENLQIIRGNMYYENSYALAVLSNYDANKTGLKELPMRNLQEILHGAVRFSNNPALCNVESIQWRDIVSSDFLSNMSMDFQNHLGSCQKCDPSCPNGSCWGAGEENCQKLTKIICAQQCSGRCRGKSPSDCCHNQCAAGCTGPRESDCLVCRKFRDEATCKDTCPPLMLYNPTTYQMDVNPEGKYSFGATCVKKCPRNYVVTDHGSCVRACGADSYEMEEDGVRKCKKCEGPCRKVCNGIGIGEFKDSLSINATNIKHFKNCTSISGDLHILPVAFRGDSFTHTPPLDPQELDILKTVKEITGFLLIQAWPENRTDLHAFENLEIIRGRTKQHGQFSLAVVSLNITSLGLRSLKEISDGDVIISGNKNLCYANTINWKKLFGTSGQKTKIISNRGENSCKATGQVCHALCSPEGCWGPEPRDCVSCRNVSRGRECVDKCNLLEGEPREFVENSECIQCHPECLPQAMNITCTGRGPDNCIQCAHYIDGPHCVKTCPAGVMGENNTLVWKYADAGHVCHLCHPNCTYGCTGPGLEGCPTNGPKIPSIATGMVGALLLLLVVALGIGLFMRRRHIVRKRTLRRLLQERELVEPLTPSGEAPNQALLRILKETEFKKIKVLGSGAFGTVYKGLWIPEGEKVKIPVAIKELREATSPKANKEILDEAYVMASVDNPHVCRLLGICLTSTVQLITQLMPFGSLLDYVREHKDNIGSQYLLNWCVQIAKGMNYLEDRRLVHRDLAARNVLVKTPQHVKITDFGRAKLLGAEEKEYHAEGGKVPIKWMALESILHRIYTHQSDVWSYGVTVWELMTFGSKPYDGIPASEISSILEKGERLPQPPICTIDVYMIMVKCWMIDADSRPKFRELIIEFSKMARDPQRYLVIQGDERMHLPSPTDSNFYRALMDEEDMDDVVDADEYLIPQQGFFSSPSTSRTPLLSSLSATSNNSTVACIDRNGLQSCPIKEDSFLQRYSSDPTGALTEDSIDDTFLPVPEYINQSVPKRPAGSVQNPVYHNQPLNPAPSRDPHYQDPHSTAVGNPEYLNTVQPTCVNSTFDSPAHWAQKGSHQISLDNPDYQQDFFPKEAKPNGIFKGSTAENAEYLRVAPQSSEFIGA
Chain of EGFR L858R/T790M/C797S (P00533 25-1210 T790M/C797S/L858R): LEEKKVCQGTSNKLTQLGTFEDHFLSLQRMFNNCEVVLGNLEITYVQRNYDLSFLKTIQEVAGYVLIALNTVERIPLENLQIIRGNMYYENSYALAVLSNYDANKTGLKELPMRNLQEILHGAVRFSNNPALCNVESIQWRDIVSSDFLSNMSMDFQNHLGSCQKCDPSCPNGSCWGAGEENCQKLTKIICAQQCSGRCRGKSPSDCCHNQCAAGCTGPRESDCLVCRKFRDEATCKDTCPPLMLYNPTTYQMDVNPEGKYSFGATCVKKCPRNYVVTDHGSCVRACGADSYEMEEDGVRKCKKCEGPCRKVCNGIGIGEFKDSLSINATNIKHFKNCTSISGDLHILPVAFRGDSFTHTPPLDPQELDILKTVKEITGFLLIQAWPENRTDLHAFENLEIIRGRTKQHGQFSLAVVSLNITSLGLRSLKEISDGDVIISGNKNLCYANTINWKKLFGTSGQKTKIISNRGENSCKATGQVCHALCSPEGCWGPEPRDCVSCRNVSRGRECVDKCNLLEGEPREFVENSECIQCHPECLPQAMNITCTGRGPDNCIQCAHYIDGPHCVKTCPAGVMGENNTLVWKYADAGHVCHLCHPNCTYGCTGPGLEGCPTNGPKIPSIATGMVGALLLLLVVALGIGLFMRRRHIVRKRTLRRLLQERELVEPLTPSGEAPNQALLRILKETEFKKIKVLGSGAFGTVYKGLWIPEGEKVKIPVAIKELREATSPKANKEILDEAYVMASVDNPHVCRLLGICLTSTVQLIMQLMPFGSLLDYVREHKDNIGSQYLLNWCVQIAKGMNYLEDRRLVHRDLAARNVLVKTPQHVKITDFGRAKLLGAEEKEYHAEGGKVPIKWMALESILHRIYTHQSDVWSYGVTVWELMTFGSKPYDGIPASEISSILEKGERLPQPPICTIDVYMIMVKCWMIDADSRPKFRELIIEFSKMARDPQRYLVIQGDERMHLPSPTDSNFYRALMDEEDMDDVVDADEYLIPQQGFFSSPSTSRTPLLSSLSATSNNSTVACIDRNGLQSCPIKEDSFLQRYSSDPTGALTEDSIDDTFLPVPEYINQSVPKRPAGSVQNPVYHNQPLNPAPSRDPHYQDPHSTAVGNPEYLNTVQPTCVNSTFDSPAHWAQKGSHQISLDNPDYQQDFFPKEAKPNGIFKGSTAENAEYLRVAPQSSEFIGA
Chain of EGFR Del19/T790M/C797S (P00533 with tags, fused parts or gaps DEL746-750/T790M/C797S): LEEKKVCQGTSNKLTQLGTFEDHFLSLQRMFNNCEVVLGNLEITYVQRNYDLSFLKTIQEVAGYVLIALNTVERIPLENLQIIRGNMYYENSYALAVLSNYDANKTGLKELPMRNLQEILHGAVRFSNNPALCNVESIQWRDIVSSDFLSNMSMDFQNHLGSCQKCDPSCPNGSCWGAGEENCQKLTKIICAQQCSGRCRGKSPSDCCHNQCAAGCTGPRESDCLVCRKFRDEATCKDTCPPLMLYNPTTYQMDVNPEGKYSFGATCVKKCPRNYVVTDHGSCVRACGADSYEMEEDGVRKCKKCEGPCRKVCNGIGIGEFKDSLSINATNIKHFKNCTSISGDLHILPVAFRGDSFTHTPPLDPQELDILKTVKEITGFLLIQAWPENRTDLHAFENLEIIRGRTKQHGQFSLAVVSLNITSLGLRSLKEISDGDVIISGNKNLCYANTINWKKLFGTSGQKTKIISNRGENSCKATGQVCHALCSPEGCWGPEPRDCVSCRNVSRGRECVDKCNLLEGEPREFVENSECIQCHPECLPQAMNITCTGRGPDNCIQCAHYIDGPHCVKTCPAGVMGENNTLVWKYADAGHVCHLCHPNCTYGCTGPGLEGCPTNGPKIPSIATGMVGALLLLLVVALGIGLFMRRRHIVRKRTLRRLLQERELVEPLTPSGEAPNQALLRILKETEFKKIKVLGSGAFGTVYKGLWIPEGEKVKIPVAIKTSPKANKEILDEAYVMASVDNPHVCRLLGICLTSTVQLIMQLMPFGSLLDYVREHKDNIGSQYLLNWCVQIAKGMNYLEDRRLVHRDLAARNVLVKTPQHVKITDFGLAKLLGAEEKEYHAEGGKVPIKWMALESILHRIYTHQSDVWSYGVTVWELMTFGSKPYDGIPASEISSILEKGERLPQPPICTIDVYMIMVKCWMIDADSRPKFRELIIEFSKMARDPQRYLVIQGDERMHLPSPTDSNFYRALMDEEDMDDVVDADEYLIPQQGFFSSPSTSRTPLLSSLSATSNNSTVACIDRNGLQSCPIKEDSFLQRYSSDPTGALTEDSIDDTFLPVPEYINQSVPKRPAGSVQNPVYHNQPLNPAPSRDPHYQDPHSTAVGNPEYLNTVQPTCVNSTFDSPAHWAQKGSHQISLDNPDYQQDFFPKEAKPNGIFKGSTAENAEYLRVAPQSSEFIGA

IC50 [1, 6] [nM] | IC50 [1, 7] [nM] | IC50 [2, 8] [nM] | IC50 [2, 9] [nM] | IC50 [3, 10] [nM] | IC50 [3, 11] [nM] | IC50 [4, 12] [nM] | IC50 [4, 13] [nM] | IC50 ([5]; IC50 WT (nM), 100 μM ATP) [nM] | IC50 [5, 14] [nM] | IC50 [1, 15] [nM] | IC50 [2, 16] [nM] | IC50 [3, 17] [nM] | IC50 [4, 18] [nM] | IC50 [5, 19] [nM] | IC50 [1, 20] [nM] | IC50 [2, 21] [nM] | IC50 [3, 22] [nM] | IC50 [4, 23] [nM] | IC50 [5, 24] [nM] | Structure (SMILES)
0.5 | 0.2 | 0.3 | 0.2 | 3.4 | 4.9 | 39.7 | 4.8 | 6020 | 38.9 |  |  |  |  |  |  |  |  |  |  | CC1(O)CCN(c2cc(Nc3ccnc(-c4cnn(S(=O)(=O)C5CC5)c4)n3)ncc2C#CC2CCS(=O)(=O)C2)CC1 (stereo not shown) [Example 429, 3-((6-((2-(1-(Cyclopropylsulfonyl)-1H-pyrazol-4-yl)pyrimidin-4-yl)amino)-4-(4-hydroxy-4-methylpiperidin-1-yl)pyridin-3-yl)ethynyl)tetrahydrothiophene 1,1-dioxide]
0.4 | 0.7 | 0.5 | 0.4 | 0.6 | 0.3 | 11.9 | 0.8 | 3010 | 3.9 |  |  |  |  |  |  |  |  |  |  | CC1(CO)CCN(c2cc(Nc3ccnc(-c4cnn(S(=O)(=O)C5CC5)c4)n3)ncc2C#CC2CCN(S(C)(=O)=O)C2)CC1 (stereo not shown) [Example 401, (1-(2-((2-(1-(Cyclopropylsulfonyl)-1H-pyrazol-4-yl)pyrimidin-4-yl)amino)-5-((1-(methylsulfonyl)pyrrolidin-3-yl)ethynyl)pyridin-4-yl)-4-methylpiperidin-4-yl)methanol]
1.2 |  | 2.4 |  | 8.2 |  | 94.9 |  | > 10000 |  |  |  |  |  |  |  |  |  |  |  | CN1CCN(Cc2ccc(C#Cc3cnc(Nc4ccnc(-c5cnn(S(=O)(=O)C6CC6)c5)n4)cc3NC[C@H]3CC[C@](C)(O)CC3)cc2)CC1 [Example 363, (1r,4r)-4-(((2-((2-(1-(Cyclopropylsulfonyl)-1H-pyrazol-4-yl)pyrimidin-4-yl)amino)-5-((4-((4-methylpiperazin-1-yl)methyl)phenyl)ethynyl)pyridin-4-yl)amino)methyl)-1-methylcyclohexan-1-ol]
3.5 |  | 8.5 |  | 87.3 |  | 1230 |  | > 10000 |  | 2.7 | 2.8 | 66.8 | 104 | 1070 |  |  |  |  |  | O=S(=O)(C1CC1)n1cc(-c2nccc(Nc3cc(N[C@H]4CCC[C@H](O)C4)c(C#Cc4cnn(C(F)(F)F)c4)cn3)n2)cn1 [Example 103, (1 S,3S)-3-((2-((2-(1-(Cyclopropylsulfonyl)-1H-pyrazol-4-yl)pyrimidin-4-yl)amino)-5-((1-(trifluoromethyl)-1H-pyrazol-4-yl)ethynyl)pyridin-4-yl)amino)cyclohexan-1-ol]
3.3 |  | 5.3 |  | 15.9 |  | 397 |  | > 10000 |  |  |  |  |  |  | 3 | 1.4 | 8.7 | 41.5 | 72.6 | CC1(CO)CCN(c2cc(Nc3ccnc(-c4cnn(S(=O)(=O)C5CC5)c4)n3)ncc2C#CC2CCCC2)CC1 [Example 251, (1-(5-(Cyclopentylethynyl)-2-((2-(1-(cyclopropylsulfonyl)-1H-pyrazol-4-yl)pyrimidin-4-yl)amino)pyridin-4-yl)-4-methylpiperidin-4-yl)methanol]
4.5 |  | 5 |  | 24.2 |  | 143 |  | > 10000 |  |  |  |  |  |  |  |  |  |  |  | Cn1cc(C#Cc2cnc(Nc3ccnc(-c4cnn(S(=O)(=O)C5CC5)c4)n3)cc2N2CCC(=O)CC2)cn1 [Example 7, 1-(2-((2-(1-(Cyclopropylsulfonyl)-1H-pyrazol-4-yl)pyrimidin-4-yl)amino)-5-((1-methyl-1H-pyrazol-4-yl)ethynyl)pyridin-4-yl)piperidin-4-one]
0.2 |  | 0.3 |  | 0.4 |  | 1.2 |  | 376 |  |  |  |  |  |  | 1.3 | 0.1 | 0.3 | 1.4 | 1 | CN(C)Cc1cccc(C#Cc2cnc(Nc3ccnc(-c4cnn(S(=O)(=O)C5CC5)c4)n3)cc2N2CCC(C)(CO)CC2)c1 [Example 255, (1-(2-((2-(1-(Cyclopropylsulfonyl)-1H-pyrazol-4-yl)pyrimidin-4-yl)amino)-5-((3-((dimethylamino)methyl)phenyl)ethynyl)pyridin-4-yl)-4-methylpiperidin-4-yl)methanol]
0.1 |  | 0.3 |  | 0.6 |  | 9 |  | 3250 |  |  |  |  |  |  | 0.1 | 0.1 | 0.6 | 1.4 | 4.4 | CN(C)CC1(C)CCN(c2cc(Nc3ccnc(-c4cnn(S(=O)(=O)C5CC5)c4)n3)ncc2C#Cc2cnn(C)c2)CC1 [Example 296, 2-(1-(Cyclopropylsulfonyl)-1H-pyrazol-4-yl)-N-(4-(4-((dimethylamino)methyl)-4-methylpiperidin-1-yl)-5-((1-methyl-1H-pyrazol-4-yl)ethynyl)pyridin-2-yl)pyrimidin-4-amine]
0.7 | 0.6 | 0.8 | 0.4 | 3.9 | 1.9 | 30.1 | 1.9 | > 10000 | 9.7 |  |  |  |  |  |  |  |  |  |  | O=S(=O)(C1CC1)n1cc(-c2nccc(Nc3cc(N[C@H]4CC[C@@H](CO)CC4)c(C#Cc4cnn(CCF)c4)cn3)n2)cn1 [Example 379, ((1s,4s)-4-((2-((2-(1-(Cyclopropylsulfonyl)-1H-pyrazol-4-yl)pyrimidin-4-yl)amino)-5-((1-(2-fluoroethyl)-1H-pyrazol-4-yl)ethynyl)pyridin-4-yl)amino)cyclohexyl)methanol]
1.4 |  | 1.1 |  | 3.3 |  | 9.2 |  | 3090 |  |  |  |  |  |  |  |  |  |  |  | Cn1cc(C#Cc2cnc(Nc3ccnc(-c4cnn(S(=O)(=O)C5CC5)c4)n3)cc2N2CCC3(CC2)CC(C)(O)C3)cn1 [Example 13, 7-(2-((2-(1-(Cyclopropylsulfonyl)-1H-pyrazol-4-yl)pyrimidin-4-yl)amino)-5-((1-methyl-1H-pyrazol-4-yl)ethynyl)pyridin-4-yl)-2-methyl-7-azaspiro[3.5]nonan-2-ol]
4.8 |  | 13.1 |  | 49.1 |  | 278 |  | > 10000 |  |  |  |  |  |  |  |  |  |  |  | CC(C)(CO)CNc1cc(Nc2ccnc(-c3cnn(S(=O)(=O)C4CC4)c3)n2)ncc1C#Cc1cnn(CCF)c1 [Example 40, 3-((2-((2-(1-Cyclopropylsulfonylpyrazol-4-yl)pyrimidin-4-yl)amino)-5-(2-(1-(2-fluoroethyl)pyrazol-4-yl)ethynyl)-4-pyridyl)amino)-2,2-dimethyl-propan-1-ol]
0.3 |  | 0.2 |  | 0.4 |  | 0.8 |  | 196 |  |  |  |  |  |  | 0.2 | 0.1 | 0.1 | 0.2 | 0.6 | CN(C)CCCn1cc(C#Cc2cnc(Nc3ccnc(-c4cnn(S(=O)(=O)C5CC5)c4)n3)cc2N2CCC3(CC2)CC(C)(O)C3)cn1 [Example 152, 7-(2-((2-(1-(Cyclopropylsulfonyl)-1H-pyrazol-4-yl)pyrimidin-4-yl)amino)-5-((1-(3-(dimethylamino)propyl)-1H-pyrazol-4-yl)ethynyl)pyridin-4-yl)-2-methyl-7-azaspiro[3.5]nonan-2-ol]
 |  |  |  |  |  |  |  |  |  | 1.3 | 5.4 | 71.3 | 34.6 | 230 |  |  |  |  |  | CN1CCN(c2cc(Nc3ccnc(-c4cnn(S(=O)(=O)C5CC5)c4)n3)ncc2C#Cc2cnn(C)c2)CC1 [Example 1, 2-(1-(Cyclopropylsulfonyl)-1H-pyrazol-4-yl)-N-(5-((1-methyl-1H-pyrazol-4-yl)ethynyl)-4-(4-methylpiperazin-1-yl)pyridin-2-yl)pyrimidin-4-amine]
0.2 | 0.2 | 0.2 | 0.1 | 0.4 | 0.2 | 7.4 | 0.5 | 1740 | 4.8 |  |  |  |  |  |  |  |  |  |  | CC1(CO)CCN(c2cc(Nc3ccnc(-c4cnn(S(=O)(=O)C5CC5)c4)n3)ncc2C#CC2(O)CCOC2)CC1 (stereo not shown) [Example 355, 3-((6-((2-(1-(Cyclopropylsulfonyl)-1H-pyrazol-4-yl)pyrimidin-4-yl)amino)-4-(4-(hydroxymethyl)-4-methylpiperidin-1-yl)pyridin-3-yl)ethynyl)tetrahydrofuran-3-ol]
